Assay type in all cases: cell-based
Assay [1] has as its target T1, S1P4 (Homo sapiens, UniProt O95977).
T1 sequence (O95977 1-384): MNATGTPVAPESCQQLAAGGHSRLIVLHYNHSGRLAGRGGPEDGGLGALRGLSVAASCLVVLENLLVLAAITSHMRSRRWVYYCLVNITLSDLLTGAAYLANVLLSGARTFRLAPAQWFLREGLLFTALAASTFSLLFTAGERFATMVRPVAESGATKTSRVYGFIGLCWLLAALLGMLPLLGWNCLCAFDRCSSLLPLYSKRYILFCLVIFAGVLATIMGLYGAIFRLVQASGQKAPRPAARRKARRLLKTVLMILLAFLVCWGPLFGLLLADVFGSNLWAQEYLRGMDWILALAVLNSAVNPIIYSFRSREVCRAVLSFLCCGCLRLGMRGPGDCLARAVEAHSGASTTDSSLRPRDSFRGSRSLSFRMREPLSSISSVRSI
In words: Aequorin assay, agonist potency, S1P4. The conditions noted are these: agonist mode, aequorin luminescence. How it is done: (§1) Agonistic activity was measured as described below.
(§2) 18 hours prior to the test, vials of frozen cells are quickly thawed in a 37° C. water bath, cells are recovered by centrifugation and resuspended in assay buffer (DMEM/HAM's F12 with HEPES, without phenol red+0.1% fatty acid-free BSA). Cells are gently agitated in suspension overnight at RT in presence of 5 μM of Coelenterazine h (Molecular Probes). On the day of the test, cells are diluted to their final working concentrations in assay buffer and agitated in suspension for 1 h at RT. Cells are then placed in the luminescence reader (Hamamatsu Functional Drug Screening System 6000, FDSS6000). During cells incubation, compounds are prepared in 100% DMSO, and subsequently diluted in assay buffer. Compounds are then dispensed in the assay plate (black, clear-bottom, 384-well plate). After binding of agonists to the human S1P receptor the intracellular calcium concentration increases and binding of calcium to the Aequorin/Coelenterazine complex leads to an oxidation reaction of coelenterazine, which results in the production of Aequorin, coelenteramide, CO2 and light (Dmax 469 nm). The luminescent response is dependent on the agonist concentration. For agonist testing, 30 μL of cell suspension are injected on 30 μL of test compound or reference agonist in the assay plate. The resulting emission of light is recorded for 90 seconds using the FDSS6000. Dose response curves with the reference compounds are performed before testing the compounds. S1P is the reference agonist and JTE-013 the reference antagonist for S1P2.
(§3) Luminescence data are integrated over the reading interval for agonist and antagonist modes. To standardize the emission of recorded light (determination of the “100% signal”) across plates and across different experiments, some of the wells contain 100 μM digitonin or a saturating concentration of ATP (20 μM). Plates also contain the reference agonist at a concentration equivalent to the EC80 obtained during the test validation and the EC100. Dose-response data from test compounds were analyzed with XLfit (IDBS) software using nonlinear regression applied to a sigmoidal dose-response model and the following equation: […]

The target of assay [2] is T2, human EDG1 (S1PR1) receptor (Homo sapiens, UniProt P21453).
T2 construct: expressed in transfected cells; host or cells: CHO-A21-Edg1#17 (CHO clone co-expressing mitochondrial aequorin and chimaeric Gaqi5)
In words: Aequorin assay, agonist potency, CHO-A21-Edg1#17 cells. The conditions noted are these: agonist mode, aequorin luminescence; read-out: S1P1 EC50. Here is the method:
as §1
(§4) Cell clone CHO-A21-Edg1#17 carries the transgenes human EDG1 (S1PR1) receptor (Accession number NP_001391.2), mitochondrially targeted Aequorin (active part corresponds to accession number 1SL8_A) and chimaeric Gaqi5=Gaq modified with the 5 C-terminal amino-acids replaced with those of the Gai protein (DCGLF). CHO-A2-S1P3 Mix is a cell pool ectopically expressing human EDG3 (S1PR3) receptor (Accession number NP_005217.2) mitochondrially targeted Aequorin (active part has a sequence similar to accession number AY601106.1) and GNA16 (Accession number NP_002059.3). Cell clone CHO-A21-EDG8#12 carries the transgenes human EDG8 (S1PR5) receptor (Acession number NP_110387.1), mitochondrially expressed Aequorin (active part corresponds to accession number 1SL8_A) and chimaeric Gaqi5 (Gaq modified to present the 5 last amino-acids of the Gai protein “DCGLF”; see above). Cells are grown to mid-log phase in culture medium (HAM's F12, 10% FBS, 100 IU/mL penicillin, 100 μg/mL streptomycin, 250 μg/mL Zeocin, 400 μg/mL G418). 18 hours prior to frozen cells preparation, the medium is changed to remove the antibiotics.
as §2, §3

The target in assay [3] is T3, human EDG8 (S1PR5) receptor (Homo sapiens, UniProt Q9H228).
T3 construct: carries the transgenes human EDG8 (S1PR5) receptor (Acession number NP_110387.1); expressed in transfected cells; host or cells: CHO-A21-EDG8#12 (CHO clone co-expressing mitochondrial aequorin and chimaeric Gaqi5)
In words: Aequorin assay, agonist potency, CHO-A21-EDG8#12 cells. Conditions: agonist mode, aequorin luminescence; read-out: S1P5 EC50 range #. Here is the method:
as §1, §4, §2, §3

T3 sequence (Q9H228 whole entry): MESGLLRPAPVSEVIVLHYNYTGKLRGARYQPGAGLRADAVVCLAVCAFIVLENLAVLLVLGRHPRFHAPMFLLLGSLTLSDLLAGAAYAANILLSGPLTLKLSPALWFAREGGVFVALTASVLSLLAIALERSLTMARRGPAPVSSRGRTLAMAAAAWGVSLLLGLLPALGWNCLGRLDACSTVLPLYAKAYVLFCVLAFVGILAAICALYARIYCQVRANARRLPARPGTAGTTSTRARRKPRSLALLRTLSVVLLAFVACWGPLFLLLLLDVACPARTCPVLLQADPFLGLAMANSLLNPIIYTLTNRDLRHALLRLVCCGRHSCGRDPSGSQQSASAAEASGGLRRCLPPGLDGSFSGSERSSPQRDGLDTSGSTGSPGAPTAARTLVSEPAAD
T2 sequence (P21453 whole entry): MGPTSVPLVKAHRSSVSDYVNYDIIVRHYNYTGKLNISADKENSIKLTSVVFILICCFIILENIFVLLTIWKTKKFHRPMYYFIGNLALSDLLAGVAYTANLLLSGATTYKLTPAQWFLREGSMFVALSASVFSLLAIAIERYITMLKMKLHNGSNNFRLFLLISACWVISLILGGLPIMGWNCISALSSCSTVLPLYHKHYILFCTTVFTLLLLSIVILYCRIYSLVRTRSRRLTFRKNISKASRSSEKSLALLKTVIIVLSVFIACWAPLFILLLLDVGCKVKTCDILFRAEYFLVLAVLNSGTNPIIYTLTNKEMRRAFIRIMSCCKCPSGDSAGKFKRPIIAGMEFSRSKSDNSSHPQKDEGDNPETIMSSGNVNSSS

On to `O=C(O)C1CC(N2CC3(Cc4ccc(OC5CCc6cccc(Cl)c65)cc4C3)C2)C1` (stereo not shown) [Example 106, 3-(5′-((7-chloro-2,3-dihydro-1H-inden-1-yl)oxy)-1′,3′-dihydrospiro[azetidine-3,2′-inden]-1-yl)cyclobutanecarboxylic acid], for which the EC50 (as a rule, the concentration giving half of the maximal effect) is below 1 µM in assay [1], below 1 µM in assay [2] and at most 0.01 µM in assay [3].
Consider `O=C(O)CN1CC2(Cc3ccc(C#Cc4ccccc4)cc3O2)C1` [Example 151, 2-(6′-(phenylethynyl)-3′H-spiro[azetidine-3,2′-benzofuran]-1-yl)acetic acid], for which the results for the EC50 in assay [1], in assay [2] and in assay [3] were below 1 µM, above 1 µM and at most 0.01 µM, respectively.
For the compound `O=C(O)C1CC(N2CC3(Cc4ccc(OCc5c(F)cccc5C5CC5)cc4C3)C2)C1` (stereo not shown) [Example 87, 3-(5′-((2-cyclopropyl-6-fluorobenzyl)oxy)-1′,3′-dihydrospiro[azetidine-3,2′-inden]-1-yl)cyclobutanecarboxylic acid], the EC50 in assay [1] is below 1 µM; in assay [2], above 1 µM; in assay [3], at most 0.01 µM.
The like results for `O=C(O)CN1CC2(Cc3ccc(OCc4cc(F)ccc4C(F)(F)F)cc3C2)C1` [Example 27, 2-(5′-((5-fluoro-2-(trifluoromethyl)benzyl)oxy)-1′,3′-dihydrospiro[azetidine-3,2′-inden]-1-yl)acetic acid] were, in that order, below 1 µM, above 1 µM and at most 0.01 µM.
The like results for `CCc1cccc(Cl)c1COc1ccc2c(c1)CC1(C2)CN(C2CC(C(=O)O)C2)C1` (stereo not shown) [Example 94, 3-(5′-((2-chloro-6-ethylbenzyl)oxy)-1′,3′-dihydrospiro[azetidine-3,2′-inden]-1-yl)cyclobutanecarboxylic acid] were, in that order, below 1 µM, below 1 µM and at most 0.01 µM.
Regarding `O=C(O)C1(CN2CC3(Cc4ccc(OCc5ccc6c(c5)OCO6)cc4C3)C2)CC1` [Example 143, 1-((5′-(benzo[d][1,3]dioxol-5-ylmethoxy)-1′,3′-dihydrospiro[azetidine-3,2′-inden]-1-yl)methyl)cyclopropanecarboxylic acid], the EC50 is below 1 µM in assay [1], above 1 µM in assay [2] and 1 to 10 µM in assay [3].
As for `CCOc1ccc(COc2ccc3c(c2)CC2(C3)CN(C3CC(C(=O)O)C3)C2)c(F)c1F` (stereo not shown) [Example 86, 3-(5′-((4-ethoxy-2,3-difluorobenzyl)oxy)-1′,3′-dihydrospiro[azetidine-3,2′-inden]-1-yl)cyclobutanecarboxylic acid], the values for the EC50 in assay [1], in assay [2] and in assay [3] were below 1 µM, above 1 µM and 1 to 10 µM, respectively.
`CC(Oc1ccc(C#Cc2ccc3c(c2)CC2(C3)CN(CC3(C(=O)O)CC3)C2)cn1)C(F)(F)F` (stereo not shown) [Example 117, 1-((5′-((6-((1,1,1-trifluoropropan-2-yl)oxy)pyridin-3-yl)ethynyl)-1′,3′-dihydrospiro[azetidine-3,2′-inden]-1-yl)methyl)cyclopropanecarboxylic acid]: the EC50 was above 1 µM in assay [1], below 1 µM in assay [2] and at most 0.01 µM in assay [3].
The like results for `O=C(O)C1(CN2CC3(Cc4ccc(OCCc5cccc(Cl)c5)cc4C3)C2)CC1` [Example 57, 1-((5′-(3-chlorophenethoxy)-1′,3′-dihydrospiro[azetidine-3,2′-inden]-1-yl)methyl)cyclopropanecarboxylic acid] were, in that order, below 1 µM, below 1 µM and 0.1 to 1 µM.
For the compound `O=C(O)C1(CN2CC3(Cc4ccc(OCc5c(F)cccc5C5CC5)cc4C3)C2)CC1` [Example 131, 1-((5′-((2-cyclopropyl-6-fluorobenzyl)oxy)-1′,3′-dihydrospiro[azetidine-3,2′-inden]-1-yl)methyl)cyclopropanecarboxylic acid], the EC50 in assay [1] was below 1 µM; in assay [2], above 1 µM; in assay [3], at most 0.01 µM.
Consider `O=C(O)CN1CC2(Cc3ccc(C#Cc4ccccc4Cl)cc3O2)C1` [Example 153, 2-(6′-((2-chlorophenyl)ethynyl)-3′H-spiro[azetidine-3,2′-benzofuran]-1-yl)acetic acid], for which the results for the EC50 in assay [1], in assay [2] and in assay [3] were below 1 µM, above 1 µM and at most 0.01 µM, respectively.
For `CCOc1ccc(C#Cc2ccc3c(c2)CC2(C3)CN(CC3(C(=O)O)CC3)C2)cc1` [Example 112, 1-((5′-((4-ethoxyphenyl)ethynyl)-1′,3′-dihydrospiro[azetidine-3,2′-inden]-1-yl)methyl)cyclopropanecarboxylic acid] the same measures were above 1 µM, above 1 µM and 0.1 to 1 µM.
For `O=C(O)C1(CN2CC3(Cc4ccc(OCc5cc(F)ccc5C(F)(F)F)cc4C3)C2)CC1` [Example 43, 1-((5′-((5-fluoro-2-(trifluoromethyl)benzyl)oxy)-1′,3′-dihydrospiro[azetidine-3,2′-inden]-1-yl)methyl)cyclopropanecarboxylic acid Compound with 2,2,2-trifluoroacetic acid (1:1)] the same measures were below 1 µM, above 1 µM and 1 to 10 µM.
The like results for `O=C(O)CN1CC2(Cc3ccc(OCCc4ccccc4)cc3C2)C1` [Example 60, 2-(5′-phenethoxy-1′,3′-dihydrospiro[azetidine-3,2′-inden]-1-yl)acetic acid] were, in that order, above 1 µM, above 1 µM and 1 to 10 µM.
For `O=C(O)C1(CN2CC3(Cc4ccc(C#Cc5ccc(OC6CCCC6)nc5)cc4C3)C2)CC1` [Example 116, 1-((5′-((6-(cyclopentyloxy)pyridin-3-yl)ethynyl)-1′,3′-dihydrospiro[azetidine-3,2′-inden]-1-yl)methyl)cyclopropanecarboxylic acid], the EC50 is above 1 µM in assay [1], above 1 µM in assay [2] and 0.01 to 0.1 µM in assay [3].
Regarding `O=C(O)C1(CN2CC3(Cc4ccc(OCc5c(F)cccc5F)cc4C3)C2)CC1` [Example 37, 1-((5′-((2,6-difluorobenzyl)oxy)-1′,3′-dihydrospiro[azetidine-3,2′-inden]-1-yl)methyl)cyclopropanecarboxylic acid compound with 2,2,2-trifluoroacetic acid (1:1)], the figures for the EC50 in assay [1], in assay [2] and in assay [3] were below 1 µM, above 1 µM and 1 to 10 µM, respectively.
As to `O=C(O)C1(CN2CC3(Cc4ccc(OCCC5CCCCC5)cc4C3)C2)CC1` [Example 132, 1-((5′-(2-cyclohexylethoxy)-1′,3′-dihydrospiro[azetidine-3,2′-inden]-1-yl)methyl)cyclopropanecarboxylic acid], the values for the EC50 in assay [1], in assay [2] and in assay [3] were below 1 µM, above 1 µM and 1 to 10 µM, respectively.
With `CCOc1ccc(C#Cc2ccc3c(c2)CC2(C3)CN(CC3(C(=O)O)CC3)C2)cc1` [Example 1, 1-((5′-((4-ethoxyphenyl)ethynyl)-1′,3′-dihydrospiro[azetidine-3,2′-inden]-1-yl)methyl)cyclopropanecarboxylic acid compound with 2,2,2-trifluoroacetic acid (1:1)], the EC50 in assay [3] lay within 1 to 10 µM.

The values are drawn from patent US20200055817A1 (AbbVie Deutschland GmbH & Co. KG, priority 2016, published 2020).
